Data as given in patent publication US20260014147A1, “STAT6 DEGRADERS” (Gilead Sciences, Inc., priority 2024, published 2026).

molecular target: T1, STAT6 (endogenous, HiBiT-tagged) in HeLa LgBiT clone 4.14 cells (Homo sapiens, UniProt P42226); assay: STAT6 Degrader Assay (HiBiT based, HeLa LgBiT clone 4.14 cells, luminescence, DC50); type: cell-based; conditions: DC50 provided for test compounds with >80% Emax, geometric mean, read-out: STAT6 degradation DC50
T1 construct: These cells express endogenous STAT6; host or cells: HeLa LgBiT clone 4.14
T1 sequence (P42226 1-847): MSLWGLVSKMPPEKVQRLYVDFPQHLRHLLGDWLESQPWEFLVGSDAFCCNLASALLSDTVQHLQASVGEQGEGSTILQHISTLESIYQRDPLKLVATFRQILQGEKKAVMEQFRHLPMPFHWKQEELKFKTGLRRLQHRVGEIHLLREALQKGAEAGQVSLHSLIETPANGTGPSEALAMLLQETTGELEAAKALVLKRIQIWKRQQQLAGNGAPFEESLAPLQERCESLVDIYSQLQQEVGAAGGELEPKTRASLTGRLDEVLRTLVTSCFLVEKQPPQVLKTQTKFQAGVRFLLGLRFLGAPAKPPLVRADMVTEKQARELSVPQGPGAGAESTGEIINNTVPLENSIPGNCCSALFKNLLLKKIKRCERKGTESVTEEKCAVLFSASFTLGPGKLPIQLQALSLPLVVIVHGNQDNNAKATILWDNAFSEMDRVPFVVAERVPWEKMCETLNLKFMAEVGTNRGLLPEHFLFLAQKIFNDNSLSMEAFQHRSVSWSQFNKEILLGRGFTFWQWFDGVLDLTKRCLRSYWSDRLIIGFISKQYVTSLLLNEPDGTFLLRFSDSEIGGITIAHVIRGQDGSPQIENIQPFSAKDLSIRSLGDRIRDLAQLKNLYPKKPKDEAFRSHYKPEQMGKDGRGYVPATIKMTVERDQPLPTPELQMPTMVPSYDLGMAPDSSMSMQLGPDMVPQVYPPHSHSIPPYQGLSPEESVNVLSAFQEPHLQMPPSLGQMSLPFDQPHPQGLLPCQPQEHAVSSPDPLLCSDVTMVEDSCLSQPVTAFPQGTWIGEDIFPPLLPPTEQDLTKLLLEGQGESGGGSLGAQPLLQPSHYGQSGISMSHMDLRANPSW
How it was run: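 HeLa LgBiT clone 4.14 cells carry CRISPR-inserted HiBiT on endogenous STAT6; 5000 cells/well were exposed to compound for 4-24 h at 37 °C, 5% CO2. Nano-Glo substrate added for 0.5 h; luminescence reflects remaining STAT6, with terfenadine ([…]) wells defining 100% degradation.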

DC50 [nM] | Structure (SMILES)
12.9 | COCc1nc2cc(-c3ccnc4c3cc(CN3CCC(c5ccc(C(=O)N6CCn7nc(CN8CCC(c9ccc(NC%10CCC(=O)NC%10=O)cc9F)C(F)(F)C8)cc7C6)cc5)CC3)n4C)ccc2[nH]1 (centres unmarked) [Example 2q12, 3-((4-(3,3-difluoro-1-((5-(4-(1-((4-(2-(methoxymethyl)-1H-benzo[d]imidazol-5-yl)-1-methyl-1H-pyrrolo[2,3-b]pyridin-2-yl)methyl)piperidin-4-yl)benzoyl)-4,5,6,7-tetrahydropyrazolo[1,5-a]pyrazin-2-yl)methyl)piperidin-4-yl)-3-fluorophenyl)amino)piperidine-2,6-dione]
0.35 | Cn1c(CN2CCC(c3ccc(-c4nnc5ccc(N6CCC(CN7CCN(c8ccc(NC9CCC(=O)NC9=O)cc8F)CC7)CC6)nn45)cc3)CC2)cc2c(-c3ccc(N)nc3)ccnc21 (centres unmarked) [Example 2r1, 3-((4-(4-((1-(3-(4-(1-((4-(6-aminopyridin-3-yl)-1-methyl-1H-pyrrolo[2,3-b]pyridin-2-yl)methyl)-piperidin-4-yl)phenyl)-[1,2,4]triazolo[4,3-b]pyridazin-6-yl)piperidin-4-yl)methyl)piperazin-1-yl)-3-fluorophenyl)-amino)piperidine-2,6-dione]

same assay, conditions: Emax provided for test compounds with <80% Emax (and 2c15), geometric mean, read-out: STAT6 degradation Emax

Structure (SMILES) | Emax [%]
Cn1c(CN2CCC(c3ccc(C(=O)N4CCC(CN5CCN(C(=O)c6ccccc6NC6CCC(=O)NC6=O)CC5)CC4)cc3)CC2)cc2c(-c3ccc4[nH]ncc4c3)ccnc21 (centres unmarked) [Example 2t2, 3-((2-(4-((1-(4-(1-((4-(1H-indazol-5-yl)-1-methyl-1H-pyrrolo[2,3-b]pyridin-2-yl)methyl)-piperidin-4-yl)benzoyl)piperidin-4-yl)methyl)piperazine-1-carbonyl)phenyl)amino)piperidine-2,6-dione] | < 20
Cn1c(CN2CCC(c3ccc(C(=O)N4CCC(CN5CCN(c6ccc(NC7CCC(=O)NC7=O)nc6)CC5)CC4)cc3)CC2)cc2c(-c3ccc4[nH]ncc4c3)ccnc21 (centres unmarked) [Example 2t3, 3-((5-(4-((1-(4-(1-((4-(1H-indazol-5-yl)-1-methyl-1H-pyrrolo[2,3-b]pyridin-2-yl)methyl)piperidin-4-yl)benzoyl)piperidin-4-yl)methyl)piperazin-1-yl)pyridin-2-yl)amino)piperidine-2,6-dione] | 40 to 50

Second part, the compound after the results:

Emax [%] | Structure (SMILES)
40 to 50 | Cn1c(CN2CCC(c3ccc(C(=O)N4CCn5c(CN6CCC(c7ccc(NC8CCC(=O)NC8=O)cc7F)CC6)nnc5C4)cc3)CC2)cc2c(-c3ccc(N)nc3)ccnc21 (centres unmarked) [Example 2q1, 3-((4-(1-((7-(4-(1-((4-(6-aminopyridin-3-yl)-1-methyl-1H-pyrrolo[2,3-b]pyridin-2-yl)methyl)piperidin-4-yl)benzoyl)-5,6,7,8-tetrahydro-[1,2,4]triazolo[4,3-a]pyrazin-3-yl)methyl)piperidin-4-yl)-3-fluorophenyl)amino)piperidine-2,6-dione]
70 to 80 | Cn1c(CN2CCC(c3ccc(C(=O)N4CCn5c(CN6CCC(c7ccc(NC8CCC(=O)NC8=O)cc7F)CC6)nnc5C4)cc3)CC2)cc2c(-c3ccc4[nH]ncc4c3)ccnc21 (centres unmarked) [Example 2q2, 3-((4-(1-((7-(4-(1-((4-(1H-indazol-5-yl)-1-methyl-1H-pyrrolo[2,3-b]pyridin-2-yl)methyl)-piperidin-4-yl)benzoyl)-5,6,7,8-tetrahydro-[1,2,4]triazolo[4,3-a]pyrazin-3-yl)methyl)piperidin-4-yl)-3-fluorophenyl)amino)piperidine-2,6-dione]
60 to 70 | Cn1c(CN2CCC(c3ccc(C(=O)N4CCC(CN5CCN(Cc6ccc(NC7CCC(=O)NC7=O)cc6)CC5)CC4)cc3)CC2)cc2c(-c3ccc4[nH]ncc4c3)ccnc21 (centres unmarked) [Example 2s1, 3-((4-((4-((1-(4-(1-((4-(1H-indazol-5-yl)-1-methyl-1H-pyrrolo[2,3-b]pyridin-2-yl)methyl)-piperidin-4-yl)benzoyl)piperidin-4-yl)methyl)piperazin-1-yl)methyl)phenyl)amino)piperidine-2,6-dione]
40 to 50 | Cn1c(CN2CCC(c3ccc(C(=O)N4CCC(CN5CCN(Cc6ccc(NC7CCC(=O)NC7=O)cc6F)CC5)CC4)cc3)CC2)cc2c(-c3ccc(N)nc3)ccnc21 (centres unmarked) [Example 2s2, 3-((4-((4-((1-(4-(1-((4-(6-aminopyridin-3-yl)-1-methyl-1H-pyrrolo[2,3-b]pyridin-2-yl)methyl)piperidin-4-yl)benzoyl)piperidin-4-yl)methyl)piperazin-1-yl)methyl)-3-fluorophenyl)amino)piperidine-2,6-dione]
30 to 40 | Cn1c(CN2CCC(c3ccc(C(=O)N4CCC(OCC#Cc5cccc(NC6CCC(=O)NC6=O)c5)CC4)cc3)CC2)cc2c(-c3ccc4[nH]ncc4c3)ccnc21 (centres unmarked) [Example 2t5, 3-((3-(3-((1-(4-(1-((4-(1H-indazol-5-yl)-1-methyl-1H-pyrrolo[2,3-b]pyridin-2-yl)methyl)-piperidin-4-yl)benzoyl)piperidin-4-yl)oxy)prop-1-yn-1-yl)phenyl)amino)-piperidine-2,6-dione]

system: Eotaxin-3 (CCL26) release in human whole blood stimulated with IL-4; assay: Human Whole Blood Eotaxin-3 Assay (IL-4 stimulated, inhibition of eotaxin-3 release); type: cell-based; conditions: Homo sapiens, EC50 provided for test compounds with >80% Emax, geometric mean across assay runs and batches
Experimental: This was a human whole blood assay using recombinant human Interleukin 4 to stimulate the blood and measuring the ability of the test compounds to inhibit eotaxin-3 release. The biological activities of the test compounds have been tested in human whole blood stimulated with IL-4 measuring Eotaxin-3 release. The test compounds were added to 384 well clear flat-bottom plate in a 4-fold serial dilution in triplicates using a liquid handler. Human whole blood stabilized in lithium-heparin tubes was added in a volume of 65 uL per well, resulting in a final DMSO concentration of 0.5%. The plate is incubated for 2 h at 37° C. under 5% CO2/95% air. Subsequently, 5 μL of recombinant human IL-4 (R&D Systems, cat #204-ILB) was added to the wells to a final concentration of 400 pM. The plate was incubated for 48 h at 37° C. under 5% CO2/95% air. The plate was spun down for 10 minutes at 500×g and 20 uL supernatant was harvested and transferred to a 384 well v-bottom plate using a liquid handler and stored at −20° C. until further analysis. 10 uL supernatant was used to measure the level of Eotaxin-3 (CCL26) using Human Eotaxin-3 MSD kit from Mesocsale (Cat #K251UEK-4). The assay was performed according to the manufacture instructions.
The data from the human whole blood eotaxin-3 assay is shown below for Examples 2q11, 2110, and 2c49 (where the effect in % is plotted against the test concentration in M on a log-scale).

EC50 [nM] | Structure (SMILES)
385 | C[C@@H](c1cc2c(-c3ccc(N)nc3)ccnc2n1C)N1CCC(c2ccc(C(=O)N3CCC(CN4CCN(c5ccc(NC6CCC(=O)NC6=O)cc5F)C[C@H]4C(F)(F)F)CC3)cc2)CC1 (single isomer, unassigned) [Example 2f10]
406 | C[C@@H](c1cc2c(-c3ccc(N)nc3)ccnc2n1C)N1CCC(c2ccc(C(=O)N3CCC(CN4CCN(c5ccc(NC6CCC(=O)NC6=O)cc5F)C[C@@H]4C(F)(F)F)CC3)cc2)CC1 (single isomer, unassigned) [Example 2f11]
112 | COc1cc(N2CCN(CC3CCN(C(=O)c4ccc(C5CCN([C@@H](C)c6cc7c(-c8ccc(N)nc8)ccnc7n6C)CC5)cc4)CC3)CC2)ccc1NC1CCC(=O)NC1=O (stereo partly drawn) [Example 2c40, 3-((4-(4-((1-(4-(1-((S)-1-(4-(6-aminopyridin-3-yl)-1-methyl-1H-pyrrolo[2,3-b]pyridin-2-yl)ethyl)piperidin-4-yl)benzoyl)piperidin-4-yl)methyl)piperazin-1-yl)-2-methoxyphenyl)amino)piperidine-2,6-dione]
197 | CNc1ccc(-c2ccnc3c2cc([C@H](C)N2CC=C(c4c(C)cc(C(=O)N5CCC(CN6CCN(c7ccc(NC8CCC(=O)NC8=O)cc7F)C[C@@H]6C)CC5)cc4F)CC2)n3C)cn1 (stereo partly drawn) [Example 2c47, 3-((3-fluoro-4-((S)-4-((1-(3-fluoro-5-methyl-4-(1-((S)-1-(1-methyl-4-(6-(methylamino)pyridin-3-yl)-1H-pyrrolo[2,3-b]pyridin-2-yl)ethyl)-1,2,3,6-tetrahydropyridin-4-yl)benzoyl)piperidin-4-yl)methyl)-3-methylpiperazin-1-yl)phenyl)amino)piperidine-2,6-dione]
3 | CNc1ccc(-c2ccnc3c2cc([C@H](C)N2CC=C(c4c(C)cc(C(=O)N5CCn6nc(CN7CCC(c8ccc(NC9CCC(=O)NC9=O)c(OC)c8)CC7)cc6C5)cc4F)CC2)n3C)cn1 (stereo partly drawn) [Example 2c49, 3-((4-(1-((5-(3-fluoro-5-methyl-4-(1-((S)-1-(1-methyl-4-(6-(methylamino)pyridin-3-yl)-1H-pyrrolo[2,3-b]pyridin-2-yl)ethyl)-1,2,3,6-tetrahydropyridin-4-yl)benzoyl)-4,5,6,7-tetrahydropyrazolo[1,5-a]pyrazin-2-yl)methyl)piperidin-4-yl)-2-methoxyphenyl)amino)piperidine-2,6-dione]
